This note sets out measurements from patent EP4813463A2, “TYK2 INHIBITORS AND COMPOSITIONS AND METHODS THEREOF” (Lynk Pharmaceuticals Co. Ltd., priority 2023, dated 2024).

The test system of test [1] is Ba/F3-FL-TYK2-P760L cells. The experiment in a line: Anti-proliferative assay in engineered Ba/F3 cells (Cell-Titer Glo, 72 h). It counts as cell-based. The settings on record: Mus musculus, concentration that causes 50% growth inhibition, read-out: Baf3-FL-T2P760L. In short, it runs like this:
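Ba/F3 cells carrying Tel-dimerization/JAK kinase fusion, IL-3-independent, in RPMI-1640 + 10% FBS; 9-point 3-fold dilutions from 20 µM (0.1% DMSO) added after 24 h, 72 h at 37 °C. Viability by Cell-Titer Glo ATP luminescence; % inhibition versus DMSO cells, blank-corrected, giving IC50.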

The target in test [2] is T1, TYK2-JH2 domain (Homo sapiens, UniProt P29597).
T1 construct: JAK1-JH2 domain or TYK2-JH2 domain enzyme in assay buffer
T1 sequence (P29597 589-875 limits assumed): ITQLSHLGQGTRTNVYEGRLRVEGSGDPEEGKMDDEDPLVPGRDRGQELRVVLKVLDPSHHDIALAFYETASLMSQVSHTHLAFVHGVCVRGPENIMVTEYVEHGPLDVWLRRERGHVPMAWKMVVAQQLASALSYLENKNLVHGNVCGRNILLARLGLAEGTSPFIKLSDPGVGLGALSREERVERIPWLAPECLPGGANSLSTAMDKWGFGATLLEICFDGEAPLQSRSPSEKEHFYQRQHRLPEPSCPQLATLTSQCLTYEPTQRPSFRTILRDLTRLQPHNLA
The experiment in a line: Binding activity test for JH2 domain of TYK2 (Tb-antibody/tracer FRET). The following applies: for pIC50: JH2 domain enzyme, 60 min at 25°C, then 4°C overnight, read-out: TYK2 JH2 Binding IC50; for JAK1/TYK2 selectivity: ratio of JAK1 JH2 to TYK2 JH2 binding IC50. In short, it runs like this:
(§1)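 Competitive TR-FRET binding: compounds dispensed as an 11-point 3-fold dilution series, then Tb-labelled antibody and tracer added to the JH2 protein system. Incubated at 25°C, then overnight at 4°C; FRET signal read on Envision and IC50 (nM) derived.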

Test [3] addresses T2, JAK1-JH2 domain (Homo sapiens, UniProt P23458).
T2 construct: JAK1-JH2 domain or TYK2-JH2 domain enzyme in assay buffer
The experiment in a line: Binding activity test for JH2 domain of JAK1 (Tb-antibody/tracer FRET). The settings on record: JH2 domain enzyme; 60 min at 25°C, then 4°C overnight; read-out: JAK1 JH2 Binding IC50. In short, it runs like this:
as §1

Where [4] appears, read: BaF3, 72 h, 72 h compound treatment.

pIC50: −log10 of the molar value. Like-named read-outs stand apart in the source and are kept apart here.

T2 sequence (P23458 583-855 limits assumed): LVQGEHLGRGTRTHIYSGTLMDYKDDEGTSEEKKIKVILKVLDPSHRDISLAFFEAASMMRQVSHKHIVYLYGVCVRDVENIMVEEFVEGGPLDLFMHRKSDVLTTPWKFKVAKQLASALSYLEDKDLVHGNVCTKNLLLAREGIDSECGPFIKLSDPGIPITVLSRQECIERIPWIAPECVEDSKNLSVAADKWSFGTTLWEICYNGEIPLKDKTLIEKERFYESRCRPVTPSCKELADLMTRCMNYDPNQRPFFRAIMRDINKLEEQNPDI

Turning to `COC(=O)c1cnc(NC(=O)C2CC2)cc1Nc1nn(C)c2ccc([C@@H](O)C(F)(F)F)c(OC)c12` [Example 48B, Methyl (R)-6-(cyclopropanecarboxamido)-4-((4-methoxy-1-methyl-5-(2,2,2-trifluoro-1-hydroxyethyl)-1H-indazol-3-yl)amino)nicotinate], the pIC50 is 6.79 in test [1] (setting [4]), 8.77 in test [2] and 7.07 in test [3]. For the same compound, the JAK1/TYK2 selectivity in test [2] turned out to be 51.13.

Regarding `[2H]C([2H])([2H])O[C@H](c1ccc2c(c(Nc3cc(NC(=O)C4CC4)ncc3C(=O)OC)nn2C)c1OC)C(F)(F)F` [Example 50A, Methyl (R)-6-(cyclopropanecarboxamido)-4-((4-methoxy-1-methyl-5-(2,2,2-trifluoro-1-(methoxy-d3)ethyl)-1H-indazol-3-yl)amino)nicotinate], the pIC50 in test [1] (setting [4]) is 6.88; in test [2], 8.98; in test [3] it was less than 6.53. In addition, the JAK1/TYK2 selectivity in test [2] is recorded as greater than 287.30.

Take `[2H]C([2H])([2H])NC(=O)c1nnc(NC(=O)C2CC2)cc1Nc1nn(C)c2ccc([C@@H](OC)C(F)(F)F)c(OC)c12` [Example 51A, (R)-6-(cyclopropanecarboxamido)-4-((4-methoxy-1-methyl-5-(2,2,2-trifluoro-1-methoxyethyl)-1H-indazol-3-yl)amino)-N-(methyl-d3)pyridazine-3-carboxamide]: the figures for the pIC50 in test [1] (setting [4]), in test [2] and in test [3] were 7.91, 9.81 and 8.20, respectively. The JAK1/TYK2 selectivity in test [2] was 40.84.

For `[2H]C([2H])([2H])n1nc(Nc2cc(NC(=O)C3CC3)ncc2C(=O)OC)c2c(OC)c([C@H](OC)C(F)(F)F)ccc21` [Example 52A, Methyl (S)-6-(cyclopropanecarboxamido)-4-((4-methoxy-1-(methyl-d3)-5-(2,2,2-trifluoro-1-methoxyethyl)-1H-indazol-3-yl)amino)nicotinate], the pIC50 is 8.45 in test [1] (setting [4]), 10.09 in test [2] and 7.39 in test [3]. Besides, in test [2], the JAK1/TYK2 selectivity is 501.71.

As to `[2H]C([2H])([2H])n1nc(Nc2cc(NC(=O)C3CC3)ncc2C(=O)OC)c2c(OC)c([C@@H](OC)C(F)(F)F)ccc21` [Example 52B, Methyl (R)-6-(cyclopropanecarboxamido)-4-((4-methoxy-1-(methyl-d3)-5-(2,2,2-trifluoro-1-methoxyethyl)-1H-indazol-3-yl)amino)nicotinate], the pIC50 is 6.92 in test [1] (setting [4]), 9.21 in test [2] and less than 6.53 in test [3]. In addition, in test [2], the JAK1/TYK2 selectivity is listed as greater than 484.60.

For `[2H]C([2H])([2H])NC(=O)c1cnc(NC(=O)C2CC2)cc1Nc1nn(C)c2ccc([C@@H](OC([2H])([2H])[2H])C(F)(F)F)c(OC)c12` [Example 55B, (R)-6-(cyclopropanecarboxamido)-4-((4-methoxy-1-methyl-5-(2,2,2-trifluoro-1-(methoxy-d3)ethyl)-1H-indazol-3-yl)amino)-N-(methyl-d3)nicotinamide], the results for the pIC50 in test [1] (setting [4]), in test [2] and in test [3] were 7.79, 10.10 and 7.91, respectively. Further, in test [2], the JAK1/TYK2 selectivity is listed as 153.54.

`COC(=O)c1cnc(NC(=O)C2CC2)nc1Nc1cccc(-c2ncn(C)n2)c1OC` [Example 56, Methyl 2-(cyclopropanecarboxamido)-4-((2-methoxy-3-(1-methyl-1H-1,2,4-triazol-3-yl)phenyl)amino)pyrimidine-5-carboxylate]: the pIC50 in test [1] (setting [4]) was 6.83; in test [2], 9.01; in test [3] it was 7.28. In addition, the JAK1/TYK2 selectivity in test [2] stood at 54.42.

Consider `CCOC(=O)c1cnc(NC(=O)C2CC2)nc1Nc1cccc(-c2ncn(C)n2)c1OC` [Example 57, Ethyl 2-(cyclopropanecarboxamido)-4-((2-methoxy-3-(1-methyl-1H-1,2,4-triazol-3-yl)phenyl)amino)pyrimidine-5-carboxylate], for which the pIC50 in test [1] (setting [4]) is 6.14; in test [2], 8.14; in test [3] it was less than 6.53. The JAK1/TYK2 selectivity in test [2] is reported as greater than 40.75.

As to `COC(=O)c1cnc(NC(=O)C2CC2)cc1Nc1cccc(-c2ncn(C)n2)c1OC` [Example 58, Methyl 6-(cyclopropanecarboxamido)-4-((2-methoxy-3-(1-methyl-1H-1,2,4-triazol-3-yl)phenyl)amino)nicotinate], the results for the pIC50 in test [1] (setting [4]), in test [2] and in test [3] were 7.49, 9.52 and 7.92, respectively. In addition, the JAK1/TYK2 selectivity in test [2] came to 39.30.

Consider `[2H]C([2H])([2H])OC(=O)c1cnc(NC(=O)C2CC2)cc1Nc1ncn2ncc(CC)c2c1OC` [Example 59, Methyl-d3 6-(cyclopropanecarboxamido)-4-((3-ethyl-4-methoxypyrazolo[1,5-c]pyrimidin-5-yl)amino)nicotinate], for which the values for the pIC50 in test [1] (setting [4]), in test [2] and in test [3] were 6.68, 9.08 and 7.36, respectively. The JAK1/TYK2 selectivity in test [2] was determined as 52.94.

Turning to `COC(=O)c1cnc(NC(=O)C2CC2)cc1Nc1cccc(-c2ccn(C)n2)c1OC` [Example 60, Methyl 6-(cyclopropanecarboxamido)-4-((2-methoxy-3-(1-methyl-1H-pyrazol-3-yl)phenyl)amino)nicotinate], the pIC50 in test [1] (setting [4]) was 7.03; in test [2], 9.26; in test [3] it was 7.75. For the same compound, the JAK1/TYK2 selectivity in test [2] is recorded as 32.87.

Take `COC(=O)c1cnc(NC(=O)C2CC2)cc1Nc1nccc(-c2cnn(C)n2)c1OC` [Example 62, Methyl 6-(cyclopropanecarboxamido)-4-((3-methoxy-4-(2-methyl-2H-1,2,3-triazol-4-yl)pyridin-2-yl)amino)nicotinate]: the figures for the pIC50 in test [1] (setting [4]), in test [2] and in test [3] were less than 6.00, 9.01 and 6.81, respectively. In addition, the JAK1/TYK2 selectivity in test [2] turned out to be 156.97.

Consider `[2H]C([2H])([2H])CC(=O)c1cnc(NC(=O)C2CC2)cc1Nc1nc2ccc(N3CC(OC)C3)cn2n1` [Example 64, N-[4-[[6-(3-methoxyazetidin-1-yl)-[1,2,4]triazolo[1,5-a]pyridin-2-yl]amino]-5-(3,3,3-trideuteriopropanoyl)-2-pyridyl]cyclopropanecarboxamide], for which the pIC50 in test [1] (setting [4]) is 7.89; in test [2], 9.85; in test [3], 7.46. The JAK1/TYK2 selectivity in test [2] came to 246.

Turning to `COc1c([C@H](OC)C(F)(F)F)ccc2c1c(Nc1cc(NC(=O)C3CC3)ncc1C(=O)O)nn2C` [Example 77, (S)-6-(Cyclopropanecarboxamido)-4-((4-methoxy-1-methyl-5-(2,2,2-trifluoro-1-methoxyethyl)-1H-indazol-3-yl)amino)nicotinic acid], the pIC50 was less than 6.00 in test [1] (setting [4]), 10.10 in test [2] and 6.73 in test [3]. The JAK1/TYK2 selectivity in test [2] was 2307.96.

In the case of `[2H]C([2H])([2H])OC(=O)c1cnc(NC(=O)C2CC2)cc1Nc1cnn2ccc([C@H](OC)C(F)(F)F)c(OC)c12` [Example 79, Methyl-d3 (S)-6-(cyclopropanecarboxamido)-4-((4-methoxy-5-(2,2,2-trifluoro-1-methoxyethyl)pyrazolo[1,5-a]pyridin-3-yl)amino)nicotinate], the pIC50 is 6.96 in test [1] (setting [4]), 9.55 in test [2] and 7.37 in test [3]. Further, the JAK1/TYK2 selectivity in test [2] is 150.32.

Take `[2H]C([2H])([2H])OC(=O)c1cnc(NC(=O)C2CC2)cc1Nc1cnn2ccc([C@H](OC([2H])([2H])[2H])C(F)(F)F)c(OC)c12` [Example 80, Methyl-d3 (S)-6-(cyclopropanecarboxamido)-4-((4-methoxy-5-(2,2,2-trifluoro-1-(methoxy-d3)ethyl)pyrazolo[1,5-a]pyridin-3-yl)amino)nicotinate]: the pIC50 in test [1] (setting [4]) was 7.05; in test [2], 9.59; in test [3] it was 7.34. In addition, in test [2], the JAK1/TYK2 selectivity is 176.08.

In the case of `[2H]C([2H])([2H])OC(=O)c1cnc(NC(=O)C2CC2)cc1Nc1ncn2ncc(C(OC)C(F)(F)F)c2c1OC` (stereo not shown) [Example 81, Methyl-d3 6-(cyclopropanecarboxamido)-4-((4-methoxy-3-(2,2,2-trifluoro-1-methoxyethyl)pyrazolo[1,5-c]pyrimidin-5-yl)amino)nicotinate], the results for the pIC50 in test [1] (setting [4]), in test [2] and in test [3] were 6.51, 8.40 and less than 6.53, respectively. In addition, the JAK1/TYK2 selectivity in test [2] is given as greater than 74.25.

On to `CCOC(=O)c1cnc(NC(=O)C2CC2)cc1Nc1cnn2ccc([C@H](O)C(F)(F)F)c(OC)c12` [Example 83, (S)-ethyl 6-(cyclopropanecarboxamido)-4-((4-methoxy-5-(2,2,2-trifluoro-1-hydroxyethyl)pyrazolo[1,5-a]pyridin-3-yl)amino)nicotinate], for which the pIC50 in test [1] (setting [4]) was 6.76; in test [2] it was 9.12; in test [3], less than 6.53. Moreover, the JAK1/TYK2 selectivity in test [2] is given as greater than 393.28.

Regarding `[2H]C([2H])([2H])NC(=O)c1cnc(NC(=O)C2CC2)cc1Nc1cnn2ccc(C(O)(C(F)(F)F)C(F)(F)F)c(OC)c12` [Example 84, 6-(Cyclopropanecarboxamido)-4-((5-(1,1,1,3,3,3-hexafluoro-2-hydroxypropan-2-yl)-4-methoxypyrazolo[1,5-a]pyridin-3-yl)amino)-N-(methyl-d3)nicotinamide], the pIC50 is 6.20 in test [1] (BaF3, 72 h compound treatment); 8.37 in test [2]; less than 6.53 in test [3]. In addition, the JAK1/TYK2 selectivity in test [2] is reported as greater than 70.42.
